Measurements taken from patent US8148391B2 (Cephalon, Inc., priority 2006, dated 2012).
Read-outs that look alike come from different tables or passages of the source.

Columns and labels:
[1] = molecular target: T1, baculovirus-expressed ALK (Homo sapiens, UniProt Q9UM73); assay: ALK Kinase Assay (ELISA-type, time-resolved fluorescence); format: biochemical
T1 construct: host or cells: baculovirus expression system
Outline: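 Plates coated with phospholipase C-γ substrate (10 μg/mL in TBS); reaction started with 30 ng/ml ALK and run 15 min at 37° C. Phosphorylated substrate detected with Eu-N1-labeled PT66 antibody. IC50 from sigmoidal variable-slope fit of percent inhibition vs log concentration.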

[2] = molecular target: T2, c-Met (cytoplasmic domain) (Homo sapiens, UniProt P08581); assay: c-Met Kinase Assay (same methods as for ALK, with modifications); format: biochemical
T2 construct: 10 ng/mL c-Met (cytoplasmic domain, Invitrogen Corporation #PV3143); purchased Invitrogen Corporation PV3143
Outline: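 Europium-labeled PT66 antibody (Eu-N1) detects substrate phosphorylation on wells coated with phospholipase C-γ at 10 μg/mL. The kinase, the cytoplasmic domain of c-Met at 10 ng/mL, starts the reaction, which proceeds 15 minutes at 37° C.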

[3] = 1 μM ATP (Km level), read-out: ALK Activity (ALK Kinase Inhibition, IC50)
[4] = 1 μM ATP (Km level), read-out: cMet Activity (c-Met Kinase Inhibition, IC50)
[5] = 1 μM ATP (Km level), 30 ng/ml ALK, 37° C., 15 minutes, read-out: ALK Activity (ALK kinase inhibition, IC50 class)
[6] = 1 μM ATP (Km level), 10 ng/mL c-Met, read-out: cMet Activity (c-Met kinase inhibition, IC50 class)
[7] = ALK kinase inhibition, 1 μM ATP, read-out: ALK Activity
[8] = c-Met kinase inhibition, 1 μM ATP, read-out: cMet Activity
[9] = ALK kinase inhibition, 1 μM ATP (Km level), read-out: ALK Activity
[10] = c-Met kinase inhibition, 1 μM ATP (Km level), read-out: cMet Activity

T2 sequence (P08581 956-1390 limits assumed): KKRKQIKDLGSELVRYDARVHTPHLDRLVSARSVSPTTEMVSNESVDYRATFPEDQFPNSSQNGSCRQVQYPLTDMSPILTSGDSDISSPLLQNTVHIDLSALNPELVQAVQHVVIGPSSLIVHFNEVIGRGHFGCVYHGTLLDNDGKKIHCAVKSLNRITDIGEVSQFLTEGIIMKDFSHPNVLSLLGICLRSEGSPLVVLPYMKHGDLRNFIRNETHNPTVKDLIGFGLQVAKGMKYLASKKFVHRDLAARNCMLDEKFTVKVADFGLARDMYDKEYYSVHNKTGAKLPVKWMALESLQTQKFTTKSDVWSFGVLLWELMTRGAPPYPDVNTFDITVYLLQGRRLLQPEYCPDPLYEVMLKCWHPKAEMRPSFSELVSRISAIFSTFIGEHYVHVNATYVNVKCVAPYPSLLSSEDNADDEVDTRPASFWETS
T1 sequence (Q9UM73 19-1620): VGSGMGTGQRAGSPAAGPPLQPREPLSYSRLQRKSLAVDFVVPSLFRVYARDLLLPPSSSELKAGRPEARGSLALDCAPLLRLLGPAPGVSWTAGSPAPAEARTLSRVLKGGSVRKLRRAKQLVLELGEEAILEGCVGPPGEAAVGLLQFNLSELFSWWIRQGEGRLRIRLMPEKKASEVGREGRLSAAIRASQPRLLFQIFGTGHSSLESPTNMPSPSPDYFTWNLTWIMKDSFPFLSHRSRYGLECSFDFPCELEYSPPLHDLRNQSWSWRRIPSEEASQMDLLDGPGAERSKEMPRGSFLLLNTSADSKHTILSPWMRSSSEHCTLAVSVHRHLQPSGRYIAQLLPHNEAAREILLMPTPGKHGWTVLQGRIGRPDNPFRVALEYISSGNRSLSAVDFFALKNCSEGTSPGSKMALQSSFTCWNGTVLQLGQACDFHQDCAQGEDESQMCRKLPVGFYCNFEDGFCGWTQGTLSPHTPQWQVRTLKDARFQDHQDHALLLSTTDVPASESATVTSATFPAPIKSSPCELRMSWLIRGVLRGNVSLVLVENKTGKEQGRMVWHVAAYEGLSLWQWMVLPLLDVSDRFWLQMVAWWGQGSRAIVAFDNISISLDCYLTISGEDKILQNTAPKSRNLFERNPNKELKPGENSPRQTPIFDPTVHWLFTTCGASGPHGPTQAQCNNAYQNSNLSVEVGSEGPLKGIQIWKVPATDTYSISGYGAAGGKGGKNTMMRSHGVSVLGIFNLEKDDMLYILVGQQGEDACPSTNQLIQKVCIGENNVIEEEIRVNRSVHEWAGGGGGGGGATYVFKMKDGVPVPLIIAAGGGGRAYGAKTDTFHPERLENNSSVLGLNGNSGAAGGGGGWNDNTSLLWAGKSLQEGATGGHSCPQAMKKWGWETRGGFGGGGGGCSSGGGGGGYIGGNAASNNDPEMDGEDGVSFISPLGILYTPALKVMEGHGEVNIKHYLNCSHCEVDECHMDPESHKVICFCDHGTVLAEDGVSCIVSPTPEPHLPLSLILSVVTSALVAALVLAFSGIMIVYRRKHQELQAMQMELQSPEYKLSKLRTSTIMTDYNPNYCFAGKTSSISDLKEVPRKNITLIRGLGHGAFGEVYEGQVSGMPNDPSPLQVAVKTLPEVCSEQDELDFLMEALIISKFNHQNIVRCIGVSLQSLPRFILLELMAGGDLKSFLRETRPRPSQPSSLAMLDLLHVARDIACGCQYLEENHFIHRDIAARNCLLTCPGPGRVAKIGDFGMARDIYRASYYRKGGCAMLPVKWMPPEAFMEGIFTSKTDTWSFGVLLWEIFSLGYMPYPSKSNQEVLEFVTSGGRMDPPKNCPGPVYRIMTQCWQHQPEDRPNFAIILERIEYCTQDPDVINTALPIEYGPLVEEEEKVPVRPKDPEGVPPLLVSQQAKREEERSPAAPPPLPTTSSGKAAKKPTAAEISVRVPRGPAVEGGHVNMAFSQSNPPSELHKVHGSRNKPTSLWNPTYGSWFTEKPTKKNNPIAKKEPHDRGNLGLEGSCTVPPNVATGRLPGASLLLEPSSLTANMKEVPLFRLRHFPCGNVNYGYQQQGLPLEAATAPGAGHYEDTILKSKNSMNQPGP

Compound	IC50 [1, 3] [µM]	IC50 [2, 4] [µM]	IC50 [1, 5] [µM]	IC50 [2, 6] [µM]	also measured
COc1cc2c(cc1Nc1ncc(Cl)c(Nc3ccc(Cl)cc3S(=O)(=O)N(C)C)n1)CCN(CC(=O)N1CCOCC1)CC2 [Example 841, 5-Chloro-2-{5-chloro-2-[8-methoxy-3-(2-morpholin-4-yl-2-oxo-ethyl)-2,3,4,5-tetrahydro-1H-benzo[d]azepin-7-ylamino]-pyrimidin-4-ylamino}-N,N-dimethyl-benzenesulfonamide]	< 0.1	> 10	–	–	–
COc1cc2c(cc1Nc1ncc(Cl)c(Nc3cc(C(N)=O)ccc3OC)n1)CCN(C(=O)CN(C)C)CC2 [Example 1139, 3-{5-Chloro-2-[3-(2-dimethylamino-acetyl)-8-methoxy-2,3,4,5-tetrahydro-1H-benzo[d]azepin-7-ylamino]-pyrimidin-4-ylamino}-4-methoxy-benzamide]	–	–	1 to 10	> 10	–
COCCOc1cccc(F)c1Nc1nc(Nc2ccc3c(c2)CCOC(=O)N3C)ncc1Cl [Example 1778, 2-{5-Chloro-4-[2-fluoro-6-(2-methoxy-ethoxy)-phenylamino]-pyrimidin-2-ylamino}-5-methyl-8,9-dihydro-5H-7-oxa-5-aza-benzocyclohepten-6-one]	–	–	–	–	IC50 [1, 7]: 0.1 to 1 µM; IC50 [2, 8]: 0.1 to 1 µM
CNC(=O)c1cccc(Cl)c1Nc1nc(Nc2ccc3c(c2)CCC(N2CCC(N4CCN(C)CC4)CC2)CC3)ncc1Cl (stereo not shown) [Example 1488, 3-Chloro-2-(5-chloro-2-{7-[4-(4-methyl-piperazin-1-yl)-piperidin-1-yl]-6,7,8,9-tetrahydro-5H-benzocyclohepten-2-ylamino}-pyrimidin-4-ylamino)-N-methyl-benzamide]	–	–	–	–	IC50 [1, 7]: 0.1 to 1 µM; IC50 [2, 8]: < 0.1 µM
COc1cc2c(cc1Nc1ncc(Cl)c(Nc3ccccc3S(=O)(=O)C(C)C)n1)CCN(CC(=O)N(C)C)CC2 [Example 1151, 2-(7-{5-Chloro-4-[2-(propane-2-sulfonyl)-phenylamino]-pyrimidin-2-ylamino}-8-methoxy-1,2,4,5-tetrahydro-benzo[d]azepin-3-yl)-N,N-dimethyl-acetamide]	–	–	< 0.1	1 to 10	–
COc1cc2c(cc1Nc1ncc(Cl)c(Nc3ccc(N4CCOCC4)cc3OC)n1)CCN(CCNC(C)=O)CC2 [Example 257, N-(2-{7-[5-Chloro-4-(2-methoxy-4-morpholin-4-yl-phenylamino)-pyrimidin-2-ylamino]-8-methoxy-1,2,4,5-tetrahydro-benzo[d]azepin-3-yl}-ethyl)-acetamide]	–	–	–	–	IC50 [1, 9]: < 0.1 µM; IC50 [2, 10]: > 10 µM
CNC(=O)c1cccc(F)c1Nc1nc(Nc2ccc3c(c2)CCN(C[C@@H](O)C(F)(F)F)CC3)ncc1Cl [Example 332, 2-{5-Chloro-2-[3-((R)-3,3,3-trifluoro-2-hydroxy-propyl)-2,3,4,5-tetrahydro-1H-benzo[d]azepin-7-ylamino]-pyrimidin-4-ylamino}-3-fluoro-N-methyl-benzamide]	–	–	–	–	IC50 [1, 9]: < 0.1 µM; IC50 [2, 10]: < 0.1 µM
2-[5-Chloro-2-(4-oxo-1,2,3,4,5,6-hexahydro-benzo[b][1,5]diazocin-8-ylamino)-pyrimidin-4-ylamino]-N-methyl-benzenesulfonamide [Example 1304]	–	–	< 0.1	0.1 to 1	–
CN1C(=O)OCCc2cc(Nc3ncc(Cl)c(Nc4cccc5[nH]ncc45)n3)ccc21 [Example 1769, 2-[5-Chloro-4-(1H-indazol-4-ylamino)-pyrimidin-2-ylamino]-5-methyl-8,9-dihydro-5H-7-oxa-5-aza-benzocyclohepten-6-one]	–	–	–	–	IC50 [1, 7]: 0.1 to 1 µM; IC50 [2, 8]: 0.1 to 1 µM
COc1c(Nc2ncc(Cl)c(Nc3ccccc3S(=O)(=O)N3CCCC3)n2)ccc2c1CCC(NCCO)CC2 (stereo not shown) [Example 704, 2-(2-{5-Chloro-4-[2-(pyrrolidine-1-sulfonyl)-phenylamino]-pyrimidin-2-ylamino}-1-methoxy-6,7,8,9-tetrahydro-5H-benzocyclohepten-7-ylamino)-ethanol]	< 0.1	0.1 to 1	–	–	–
CCN1CCc2c(Nc3ncc(Cl)c(N[C@@H]4CCCC[C@H]4NS(C)(=O)=O)n3)ccc(OC)c2CC1 [Example 155, N-{(1R,2R)-2-[5-Chloro-2-(3-ethyl-9-methoxy-2,3,4,5-tetrahydro-1H-benzo[d]azepin-6-ylamino)-pyrimidin-4-ylamino]-cyclohexyl}-methanesulfonamide]	–	–	–	–	IC50 [1, 9]: < 0.1 µM; IC50 [2, 10]: > 10 µM
COc1cc2c(cc1Nc1ncc(Cl)c(Nc3ccccc3C(=O)OC(C)C)n1)CCN(CCCN(C)C)C(=O)C2 [Example 1111, 2-{5-Chloro-2-[3-(3-dimethylamino-propyl)-8-methoxy-2-oxo-2,3,4,5-tetrahydro-1H-benzo[d]azepin-7-ylamino]-pyrimidin-4-ylamino}-benzoic acid isopropyl ester]	–	–	< 0.1	> 10	–
CN1C(=O)CCC(C)(C)c2cc(Nc3ncc(Cl)c(N[C@@H]4CCCC[C@H]4N(C)S(C)(=O)=O)n3)ccc21 [Example 1680, N-{(1R,2R)-2-[5-Chloro-2-(1,5,5-trimethyl-2-oxo-2,3,4,5-tetrahydro-1H-benzo[b]azepin-7-ylamino)-pyrimidin-4-ylamino]-cyclohexyl}-N-methyl-methanesulfonamide]	–	–	–	–	IC50 [1, 7]: < 0.1 µM; IC50 [2, 8]: 0.1 to 1 µM
CNC(=O)c1ccccc1Nc1nc(Nc2cc3c(cc2OC)CCC(NCCO)CC3)ncc1Cl (stereo not shown) [Example 1092, 2-{5-Chloro-2-[7-(2-hydroxy-ethylamino)-3-methoxy-6,7,8,9-tetrahydro-5H-benzocyclohepten-2-ylamino]-pyrimidin-4-ylamino}-N-methyl-benzamide]	–	–	< 0.1	> 10	–
COCCN1CCc2ccc(Nc3ncc(Cl)c(Nc4c(F)cccc4S(=O)(=O)C(C)C)n3)cc2CC1 [Example 1253, 5-Chloro-N(4)-[2-fluoro-6-(propane-2-sulfonyl)-phenyl]-N(2)-[3-(2-methoxy-ethyl)-2,3,4,5-tetrahydro-1H-3-benzazepin-7-yl]-pyrimidine-2,4-diamine]	–	–	< 0.1	1 to 10	–
CCN1C(=O)CCC(C)(C)c2cc(Nc3ncc(Cl)c(Nc4ccc(N5CCOCC5)cc4OC)n3)ccc21 [Example 391, 7-[5-Chloro-4-(2-methoxy-4-morpholin-4-yl-phenylamino)-pyrimidin-2-ylamino]-1-ethyl-5,5-dimethyl-1,3,4,5-tetrahydro-benzo[b]azepin-2-one]	–	–	–	–	IC50 [1, 9]: < 0.1 µM; IC50 [2, 10]: > 10 µM
C=CCN1CCNC(=O)c2cccc(Nc3ncc(Cl)c(Nc4ccccc4C(=O)NC)n3)c21 [Example 545, 2-[2-(1-Allyl-5-oxo-2,3,4,5-tetrahydro-1H-benzo[e][1,4]diazepin-9-ylamino)-5-chloro-pyrimidin-4-ylamino]-N-methyl-benzamide]	1 to 10	> 10	–	–	–
COc1cc2c(cc1Nc1ncc(Cl)c(N[C@H]3[C@@H](C(N)=O)[C@@H]4C=C[C@H]3C4)n1)CCN(C[C@H](O)C(F)(F)F)CC2 [Example 1673, (1S,2S,3R,4R)-3-{5-Chloro-2-[8-methoxy-3-((S)-3,3,3-trifluoro-2-hydroxy-propyl)-2,3,4,5-tetrahydro-1H-benzo[d]azepin-7-ylamino]-pyrimidin-4-ylamino}-bicyclo[2.2.1]hept-5-ene-2-carboxylic acid amide]	–	–	–	–	IC50 [1, 7]: < 0.1 µM; IC50 [2, 8]: > 10 µM

Continued, in another order:

IC50 [1, 3] [µM]	IC50 [2, 4] [µM]	IC50 [1, 5] [µM]	IC50 [2, 6] [µM]	Compound	also measured
< 0.1	1 to 10	–	–	CCN1C(=O)CNCc2cc(OC)c(Nc3ncc(Cl)c(Nc4ccccc4S(=O)(=O)C(C)C)n3)cc21 [Example 729, 8-{5-Chloro-4-[2-(propane-2-sulfonyl)-phenylamino]-pyrimidin-2-ylamino}-1-ethyl-7-methoxy-1,3,4,5-tetrahydro-benzo[e][1,4]diazepin-2-one]	–
–	–	0.1 to 1	1 to 10	COCCN1CCc2ccc(Nc3ncc(Cl)c(Nc4ccc5[nH]c(C(F)(F)F)nc5c4)n3)cc2CC1 [Example 1015, 5-Chloro-N*2*-[3-(2-methoxy-ethyl)-2,3,4,5-tetrahydro-1H-benzo[d]azepin-7-yl]-N*4*-(2-trifluoromethyl-1H-benzoimidazol-5-yl)-pyrimidine-2,4-diamine]	–
< 0.1	> 10	–	–	COCCN1CCc2cc(Nc3ncc(Cl)c(NC4C5C=CC(C5)C4C(=O)NC(C)C)n3)c(OC)cc2CC1 (stereo not drawn) [Example 605, (2-exo-3-exo)-3-{5-Chloro-2-[8-methoxy-3-(2-methoxy-ethyl)-2,3,4,5-tetrahydro-1H-benzo[d]azepin-7-ylamino]-pyrimidin-4-ylamino}-bicyclo[2.2.1]hept-5-ene-2-carboxylic acid isopropylamide]	–
0.1 to 1	> 10	–	–	COc1cc2c(cc1Nc1ncc(Cl)c(Nc3ccc(N4CCOCC4)cc3OC)n1)CCN(CC(C)(F)F)CC2 [Example 780, 5-Chloro-N*2*-[3-(2,2-difluoro-propyl)-8-methoxy-2,3,4,5-tetrahydro-1H-benzo[d]azepin-7-yl]-N*4*-(2-methoxy-4-morpholin-4-yl-phenyl)-pyrimidine-2,4-diamine]	–
< 0.1	> 10	–	–	CCN(CCO)Cc1cc(Nc2nc(Nc3ccc4c(c3)N(CC)CCN(CC)C4)ncc2Cl)ccc1F [Example 734, 2-({5-[5-Chloro-2-(1,4-diethyl-2,3,4,5-tetrahydro-1H-benzo[e][1,4]diazepin-8-ylamino)-pyrimidin-4-ylamino]-2-fluoro-benzyl}-ethyl-amino)-ethanol]	–
